{
  "source": "patent US10132816B2",
  "about": "“Measurement of FGF21 as a biomarker of fructose metabolism” (Beth Israel Deaconess Medical Center, Inc., priority 2013, dated 2018)",
  "key": {"[1]": {"test_system": "circulating FGF21 levels", "assay": "oral fructose load versus oral glucose load, circulating FGF21 in human subjects", "format": "in vivo", "conditions": "two hours after ingestion of 75 grams of fructose, lean healthy subjects", "source_text": "FIGS. 2A-2B show plasma FGF21 levels: FIG. 2A) following ingestion of 75 grams glucose (n=8) and FIG. 2B) Plasma FGF21 levels following ingestion of 75 grams fructose in human subjects (n=10).\nTo test whether fructose ingestion can acutely regulate circulating FGF21 in human subjects, we compared the effects of administering a 75 gram oral glucose load versus a 75 gram oral fructose load on circulating FGF21 levels in lean healthy subjects. Ingestion of glucose has no effect on FGF21 levels (FIG. 2A and ^14). In contrast, circulating FGF21 levels increase ˜4-fold two hours after ingestion of 75 grams of fructose (FIG. 2B). Thus oral fructose ingestion, but not glucose ingestion acutely and robustly increases circulating FGF21 levels. To our knowledge FGF21 is the only known measurable circulating biomarker that specifically assesses an individual's acute metabolic response to fructose ingestion."}, "[2]": {"test_system": "hepatic ChREBP-β, ChREBP transcriptional targets and circulating FGF21", "assay": "mice fed chow, 60% dextrose or 60% fructose diets for 7 weeks: hepatic mRNA expression and circulating FGF21", "format": "in vivo", "conditions": "7 weeks of 60% diet", "source_text": "FIGS. 1A-1C are bar graphs of hepatic mRNA expression (FIG. 1A, 1B) and circulating (FIG. 1C) FGF21 levels in 15-week-old mice fed chow, 60% dextrose, or 60% fructose diets for 7 weeks, sacrificed in the ad lib fed state. * P<0.05 compared to all other groups. n=5-7 per group.\nThe FGF21 gene contains a ChREBP binding site in its promoter and exposure of primary hepatocytes to high glucose concentrations increases FGF21 expression in a ChREBP dependent manner^37,38. To determine whether ChREBP might regulate circulating FGF21 levels we fed mice chow, 60% dextrose, or 60% fructose diets. […] Thus, we hypothesized that the increase in circulating FGF21 levels associated with features of the metabolic syndrome might be due to activation of hepatic ChREBP and that fructose consumption might be important for this."}, "[3]": {"conditions": "fructose: at first pass; cited from earlier work"}},
  "data": [
    {"compound": "O=C(CO)[C@@H](O)[C@H](O)[C@H](O)CO", "note": "[fructose]", "values": [
      {"measurement": "increase of circulating FGF21 levels", "setting": "[1]", "result": "~4", "unit": "fold"},
      {"measurement": "circulating FGF21 levels", "setting": "[2]", "result": "highest levels"},
      {"measurement": "effect of fructose on hepatic ChREBP-β expression relative to that of dextrose", "setting": "[2]", "result": "~3", "unit": "fold"},
      {"measurement": "expression of ChREBP transcriptional targets (Pklr, Fasn, FGF21) in liver", "setting": "[2]", "result": "greater increase"},
      {"measurement": "hepatic expression of ChREBP-β compared to chow", "setting": "[2]; ad lib fed state", "result": "markedly increases"},
      {"measurement": "share of an oral load taken up / extracted by the liver", "setting": "[3]", "result": "~100", "unit": "%"}
    ]}
  ]
}
